According to patent US20210275511A1, “METHYLPHENIDATE COMPOSITIONS FOR TREATMENT OF ATTENTION DEFICIT HYPERACTIVITY DISORDER” (Ironshore Pharmaceuticals & Development, Inc., priority 2019, published 2021):

Test system: SKAMP scores in children aged 6-12 with attention deficit hyperactivity disorder (ADHD)
Experiment: Population PK/PD model of SKAMP scores (Study HLD200-107, laboratory classroom)
Format: in vivo, human
Settings: FIG. 37
Text: PD data. The clinical data used in this analysis were the SKAMP scores collected in a Phase 3 (HLD200-107 study), multicenter, open-label treatment-optimized, double-blind, randomized, placebo-controlled, forced-withdrawal, parallel group study to evaluate the safety and efficacy of evening dosed HLD200, a novel delayed and extended release formulation (DELEXIS) of methylphenidate hydrochloride, in children aged 6-12 with attention deficit hyperactivity disorder (ADHD) in a laboratory classroom setting.
PK/PD model development. In this study, no MPH samples were collected. Therefore the individual exposure, used in the PK/PD analysis were estimated based on the outcomes of population PK model and on the individual demographic (weight and gender) covariate values.
The model included a parametric description of the trajectories of SKAMP scores for placebo and HLD200 treatments. […]
Examples 10 to 15 relate to PK/PD analysis results. […] In the first step, the individual MPH concentrations were derived using the population PK model previously developed jointly with the individual demographic data and the individual HLD200 dosing history, then the placebo data were modelled, and finally the SKAMP scores were analyzed by fixing the placebo and the PK exposure values previously estimated. […]

Compound: COC(=O)C(c1ccccc1)C1CCCCN1 (stereo not shown) [MPH, methylphenidate]
- Drug concentration required to induce a change from placebo of ~40%: ~15 ng/mL
